This note sets out measurements from US20120107903A1 (priority 2010, published 2012).

Series [1] deals with Burkholderia cepacia KS1 glucose dehydrogenase (α-subunit SEQ ID NO:3), variant QYY, 326Gln+365Tyr+472Tyr (Burkholderia cepacia, UniProt Q8GQE7, A472Y/S326Q/S365Y). The class given is biochemical. The following applies: pH 7.
Series [2] addresses Burkholderia cepacia KS1 glucose dehydrogenase (α-subunit SEQ ID NO:3), variant QYA (QY), 326Gln+365Tyr (Burkholderia cepacia, UniProt Q8GQE7, S326Q/S365Y). The class given is biochemical. The following applies: pH 7.
The target in series [3] is Burkholderia cepacia KS1 glucose dehydrogenase (α-subunit SEQ ID NO:3), variant QYR, 326Gln+365Tyr+472Arg (Burkholderia cepacia, UniProt Q8GQE7, A472R/S326Q/S365Y). The class given is biochemical. The following applies: pH 7.
In series [4] the target is Ralstonia pickettii 12D FAD dependent oxidoreductase (SEQ ID NO:9), variant QYY, S327Q/S366Y/A473Y (Ralstonia pickettii, UniProt A0ABM9ITV6, A473Y/S327Q/S366Y). The class given is biochemical.
Series [5] deals with Burkholderia thailandensis TXDOH hypothetical protein BthaT_07876 (SEQ ID NO:8), variant QYY, S324Q/S363Y/A470Y (Burkholderia thailandensis, UniProt Q2T5D8, A470Y/S324Q/S363Y).
For series [6], the target named is Ralstonia solanacearum IPO1609 transmembrane dehydrogenase, wild type, SEQ ID NO:10 (Ralstonia solanacearum, UniProt A0ABF7REW7).
For series [7], the target named is Burkholderia cenocepacia J2315 putative oxidoreductase (SEQ ID NO:7), variant QYY, S326Q/S365Y/A472Y (Burkholderia cenocepacia, UniProt B4ELB3, A472Y/S326Q/S365Y). The class given is biochemical. The following applies: read-out: Km (Mal).
Series [8] addresses Ralstonia pickettii 12D FAD dependent oxidoreductase, wild type, SEQ ID NO:9 (Ralstonia pickettii, UniProt A0ABM9ITV6).
In series [9] the test system is OC[C@H]1OC(O)[C@H](O)[C@@H](O)[C@@H]1O. Description: cells, lysate or membranes named.
Series [10] concerns OC[C@H]1O[C@H](O[C@H]2[C@H](O)[C@@H](O)C(O)O[C@@H]2CO)[C@H](O)[C@@H](O)[C@@H]1O. Description: cells, lysate or membranes named. The following applies: pH 7.0.

For the molecule `OC[C@H]1OC(O)[C@H](O)[C@@H](O)[C@@H]1O` (some centres unmarked) [Glucose, glucose], the “Vmax (Glc.)” value in [1] is “Vmax (Glc.) = 131.6 U/mg protein”; in series [2], “Vmax (Glc.) = 149.3 U/mg protein”; in series [3], “Vmax (Glc.) = 93.5 U/mg protein”. Also, the results for the “Vmax (Glc)” value in series [4], in [5] and in [6] were 1.62 U/mL, 48.8 U/mL and 0.14 U/mL, respectively.
In general, Km refers to the substrate concentration at which the rate is half of its maximum. On to `OC[C@H]1O[C@H](O[C@H]2[C@H](O)[C@@H](O)C(O)O[C@@H]2CO)[C@H](O)[C@@H](O)[C@@H]1O` (some centres unmarked) [Mal, maltose], for which the Km in series [7] was more than 100000 µM. For the same molecule, the entries for the “Vmax (Mal)” value in series [8] and in [6] were 0.94 U/mL and 0.14 U/mL, respectively.
Take (Burkholderia cenocepacia J2315): in series [9] (pH 7.0), the Km came to 110 µM and the Vmax was 2.05 U/mL. For the same molecule, in [10], the Km was found to be 1300 µM and the Vmax is 1.87 U/mL.
As for (Burkholderia cepacia), in series [9] (pH 7.5), the Km is 1350 µM and the Vmax is 100 µmol/min/mg.
Regarding (Ralstonia pickettii), in [10], the Km is 2020 µM.
(Ralstonia solanacearum IPO1609): the Km in [10] worked out at 2640 µM.
